Measurements as given in patent US20050101595A1, “N-containing cycloalkyl-substituted amino-thiazole derivatives and pharmaceutical compositions for inhibiting cell proliferation and methods for their use” (PFIZER INC., priority 2003, published 2005).
pIC50, pKi: −log10 of the molar value. Where a name gives a salt, the structure may show the parent alone. Read-outs that look alike come from different tables or passages of the source.

How the values were obtained:
CDK2/Cyclin A = CDK2/Cyclin A (Homo sapiens, UniProt P24941); experiment: Inhibition of CDK2/Cyclin A Retinoblastoma Kinase Activity; assay type: biochemical; details: for pKi: apparent Ki, CDK2/proteolyzed cyclin A, Rb fragment substrate, 25 μM ATP; for CDK2 % Inhibition At 0.03 μM: Table 2
Summary of the method: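 Human CDK2, baculovirus/insect-cell expressed, complexed with proteolyzed cyclin A (10 nM or 19 nM CDK2) phosphorylates an Rb fragment with 25 μM [32P/33P]ATP at pH 7.4, 30° C, for 60 or 75 minutes under initial-rate conditions. Filter-captured radioactivity is read by phosphorimager; apparent Ki from competitive-inhibition fits.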

[1] = molecular target: human CDK4 and genetically truncated (1-264) cyclin D3 (Homo sapiens, UniProt P11802); experiment: Inhibition of CDK4/Cyclin D Retinoblastoma Kinase Activity; assay type: biochemical; details: for pKi: apparent Ki, CDK4/truncated cyclin D3, Rb fragment substrate, 25 μM ATP
Summary of the method: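 Read-out: 32P/33P incorporation into Rb fragment (386-928) captured on nitrocellulose, phosphorimager. Enzyme 5 nM CDK4/cyclin D3(1-264) from insect cells; ATP 25 μM, pH 7.4, 30 °C, 20 min (60 min for tight binders). Ki from competitive fits.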

HCT-116 cell line = experiment: Inhibition of cell growth, tetrazolium salt (MTT) assay; assay type: cell-based; details: for HCT-116 % Inhibition at 0.25 μM: 0.25 μM compound; for pIC50: Homo sapiens, HCT-116, 120 h, MTT, three to five days, read-out: HCT-116 IC50
Summary of the method: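 McCoy's 5A cultures; 4 h pre-incubation; compound dilutions in 0.5% v/v DMSO; 3–5 d, 37° C, 5% CO2; MTT 0.2 mg/mL final, 4 h; formazan dissolved in DMSO, A540; vs 0.5% DMSO vehicle.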

[2] = 0.1 μM compound, HCT-116, Table 4
[3] = 0.1 μM compound, HCT-116, Table 3

human CDK4 and genetically truncated (1-264) cyclin D3, sequence (P11802 whole entry, the tested form may be a part): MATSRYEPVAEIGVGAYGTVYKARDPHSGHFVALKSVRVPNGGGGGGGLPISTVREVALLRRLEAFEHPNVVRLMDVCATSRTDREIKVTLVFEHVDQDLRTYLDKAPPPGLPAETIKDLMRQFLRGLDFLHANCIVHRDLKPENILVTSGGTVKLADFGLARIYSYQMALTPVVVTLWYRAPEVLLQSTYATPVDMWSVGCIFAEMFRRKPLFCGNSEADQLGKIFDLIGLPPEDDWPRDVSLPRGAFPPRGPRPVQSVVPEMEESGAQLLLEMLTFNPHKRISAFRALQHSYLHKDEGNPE
human CDK4 and genetically truncated (1-264) cyclin D3, sequence (P30281 1-264 partner): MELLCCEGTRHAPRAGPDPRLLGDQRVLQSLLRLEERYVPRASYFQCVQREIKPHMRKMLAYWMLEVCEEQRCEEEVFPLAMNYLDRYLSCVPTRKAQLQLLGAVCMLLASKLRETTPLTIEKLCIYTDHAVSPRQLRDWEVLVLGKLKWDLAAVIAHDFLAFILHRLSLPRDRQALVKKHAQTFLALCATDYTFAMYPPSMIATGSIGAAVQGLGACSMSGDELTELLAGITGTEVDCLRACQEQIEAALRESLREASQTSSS

## Cc1cccc(C(=O)N2CCC(Nc3nc(N)c(C(=O)c4c(F)cccc4F)s3)CC2)c1 [Example R140]
CDK2/Cyclin A; at 0.03 μM
  CDK2 % Inhibition at 0.03 μM: 38%
[1]; at 0.03 μM
  CDK4 % Inhibition at 0.03 μM: 69%
HCT-116 cell line; HCT-116 cells, at 0.1 μM
  HCT-116 % Inhibition at 0.1 μM: 32%
HCT-116 cell line; HCT-116 cells
  HCT-116 5 Inhibition at 0.25 μM: 78

## Nc1nc(NC2CCN(C(=O)C3CCCCC3)CC2)sc1C(=O)c1c(F)cccc1F [Example Q59]
CDK2/Cyclin A; 0.03 μM compound, Table 4
  CDK2 % Inhibition at 0.03 μM: 10%
[1]; 0.03 μM compound, Table 4
  CDK4 % Inhibition at 0.03 μM: 14%
HCT-116 cell line; [2]
  HCT-116 % Inhibition at 0.1 μM: 0%
HCT-116 cell line; HCT-116, Table 4
  HCT-116 % Inhibition at 0.25 μM: 30%

## CC(CN(C)C)Oc1ccc(S(=O)(=O)N2CCC(Nc3nc(N)c(C(=O)c4c(F)cccc4F)s3)CC2)cn1 (racemic) [Example H13, 1-(4-Amino-2-{1-[6-(2-dimethylamino-1RS-methyl-ethoxy)-pyridine-3-sulfonyl]-piperidin-4-ylamino}-thiazol-5-yl)-1-(2,6-fifluoro-phenyl)-methanone Dihydrochloride]
CDK2/Cyclin A
  pKi: 8.96
[1]
  pKi: 9.19
HCT-116 cell line; first HCT-116 column (c4)
  pIC50: 7.05
HCT-116 cell line; second HCT-116 column (c5)
  pIC50: 6.40

## COc1ccc(C(=O)N2CCC(Nc3nc(N)c(C(=O)c4c(F)cccc4F)s3)CC2)cc1 [Example R148]
CDK2/Cyclin A; at 0.03 μM
  CDK2 % Inhibition at 0.03 μM: 20%
[1]; at 0.03 μM
  CDK4 % Inhibition at 0.03 μM: 49%
HCT-116 cell line; HCT-116 cells, at 0.1 μM
  HCT-116 % Inhibition at 0.1 μM: 0%
HCT-116 cell line; HCT-116 cells
  HCT-116 5 Inhibition at 0.25 μM: 42

## Nc1nc(NC2CCN(S(=O)(=O)c3ccc(OCCN4CCCCC4)nc3)CC2)sc1C(=O)c1c(F)cccc1F [Example H6, 1-[4-Amino-2-{1-[6-(2-piperidin-1-yl-ethoxy)-pyridine-3-sulfonyl]-piperidin-4-ylamino}-thiazol-5-yl)-1-(2,6-difluoro-phenyl)-methanone Dihydrochloride]
CDK2/Cyclin A
  pKi: 9.08
[1]
  pKi: 9.42
HCT-116 cell line; first HCT-116 column (c4)
  pIC50: 7.22
HCT-116 cell line; second HCT-116 column (c5)
  pIC50: 6.30

## CC(C)(C)NCCOc1ccc(S(=O)(=O)N2CCC(Nc3nc(N)c(C(=O)c4c(F)cccc4F)s3)CC2)cn1 [Example H20, (4-Amino-2-{1-[6-(2-tert-butylamino-ethoxy)-pyridine-3-sulfonyl]-piperidin-4-ylamino}-thiazol-5-yl)-(2,6-difluoro-phenyl)-methanone Hydrochloride Salt]
CDK2/Cyclin A
  pKi: 8.82
[1]
  pKi: 9.29
HCT-116 cell line; first HCT-116 column (c4)
  pIC50: 6.42
HCT-116 cell line; second HCT-116 column (c5)
  pIC50: 5.52

## Nc1nc(NC2CCN(C(=O)CCC3CCCCC3)CC2)sc1C(=O)c1c(F)cccc1F [Example R101]
CDK2/Cyclin A; at 0.03 μM
  CDK2 % Inhibition at 0.03 μM: 15%
[1]; at 0.03 μM
  CDK4 % Inhibition at 0.03 μM: 39%
HCT-116 cell line; HCT-116 cells, at 0.1 μM
  HCT-116 % Inhibition at 0.1 μM: 7%
HCT-116 cell line; HCT-116 cells
  HCT-116 5 Inhibition at 0.25 μM: 45

## COC(=O)CCCCCCCCC(=O)N1CCC(Nc2nc(N)c(C(=O)c3c(F)cccc3F)s2)CC1 [Example R76]
CDK2/Cyclin A; at 0.03 μM
  CDK2 % Inhibition at 0.03 μM: 53%
[1]; at 0.03 μM
  CDK4 % Inhibition at 0.03 μM: 64%
HCT-116 cell line; HCT-116 cells, at 0.1 μM
  HCT-116 % Inhibition at 0.1 μM: 0%
HCT-116 cell line; HCT-116 cells
  HCT-116 5 Inhibition at 0.25 μM: 38

## Nc1nc(NC2CCN(S(=O)(=O)c3cccc4ccccc34)CC2)sc1C(=O)c1c(F)cccc1F [Example P1]
CDK2/Cyclin A; 0.03 μM compound, Table 3
  CDK2 % Inhibition at 0.03 μM: 45%
[1]; 0.03 μM compound, Table 3
  CDK4 % Inhibition at 0.03 μM: 51%
HCT-116 cell line; [3]
  HCT-116 % Inhibition at 0.1 μM: 9%
HCT-116 cell line; HCT-116, Table 3
  HCT-116 % Inhibition at 0.25 μM: 32%

## Nc1nc(NC2CCN(S(=O)(=O)c3cccc4cccnc34)CC2)sc1C(=O)c1c(F)cccc1F [Example P6]
CDK2/Cyclin A; 0.03 μM compound, Table 3
  CDK2 % Inhibition at 0.03 μM: −32%
[1]; 0.03 μM compound, Table 3
  CDK4 % Inhibition at 0.03 μM: 18%
HCT-116 cell line; [3]
  HCT-116 % Inhibition at 0.1 μM: 22%
HCT-116 cell line; HCT-116, Table 3
  HCT-116 % Inhibition at 0.25 μM: 23%

## Nc1nc(NC2CCN(C(=O)NC(=O)c3ccccc3)CC2)sc1C(=O)c1c(F)cccc1F [Example O26]
CDK2/Cyclin A; 0.03 μM compound
  CDK2 % Inhibition At 0.03 μM: 33%
[1]; 0.03 μM compound, Table 2
  CDK4 % Inhibition at 0.03 μM: 10%
HCT-116 cell line; HCT-116, Table 2
  HCT-116 % Inhibition at 0.25 μM: 12%

## COC(C(=O)N1CCC(Nc2nc(N)c(C(=O)c3c(F)cccc3F)s2)CC1)(c1ccccc1)C(F)(F)F (stereo not shown) [Example R39]
CDK2/Cyclin A; at 0.03 μM
  CDK2 % Inhibition at 0.03 μM: −6%
[1]; at 0.03 μM
  CDK4 % Inhibition at 0.03 μM: 16%
HCT-116 cell line; HCT-116 cells, at 0.1 μM
  HCT-116 % Inhibition at 0.1 μM: 5%
HCT-116 cell line; HCT-116 cells
  HCT-116 5 Inhibition at 0.25 μM: 51

## Nc1nc(NC2CCN(C(=O)c3ccccc3[N+](=O)[O-])CC2)sc1C(=O)c1c(F)cccc1F [Example Q68]
CDK2/Cyclin A; 0.03 μM compound, Table 4
  CDK2 % Inhibition at 0.03 μM: 41%
[1]; 0.03 μM compound, Table 4
  CDK4 % Inhibition at 0.03 μM: 51%
HCT-116 cell line; [2]
  HCT-116 % Inhibition at 0.1 μM: 4%
HCT-116 cell line; HCT-116, Table 4
  HCT-116 % Inhibition at 0.25 μM: 33%

## CN1CCC(c2ccc(S(=O)(=O)N3CCC(Nc4nc(N)c(C(=O)c5c(F)cccc5F)s4)CC3)cc2)C1 (stereo not shown) [Example F25, 1-(4-Amino-2-[1-[4-(1-methyl-pyrrolidin-3-yl)-benzenesulfonyl]-piperidin-4-ylamino]-thiazol-5-yl}-1-(2,6-difluoro-phenyl)-methanone Dihydrochloride]
CDK2/Cyclin A
  pKi: 8.82
[1]
  pKi: 9.03
HCT-116 cell line; first HCT-116 column (c4)
  pIC50: 7.10
HCT-116 cell line; second HCT-116 column (c5)
  pIC50: 6.52

## CCOC(=O)NC(=O)N1CCC(Nc2nc(N)c(C(=O)c3c(F)cccc3F)s2)CC1 [Example O38]
CDK2/Cyclin A; 0.03 μM compound
  CDK2 % Inhibition At 0.03 μM: 29%
[1]; 0.03 μM compound, Table 2
  CDK4 % Inhibition at 0.03 μM: 15%
HCT-116 cell line; HCT-116, Table 2
  HCT-116 % Inhibition at 0.25 μM: 29%
